According to patent US20170210751A1, “PRMT5 INHIBITORS AND USES THEREOF” (Epizyme, Inc., priority 2014, published 2017):

Biological target: T1, PRMT5/MEP50 (Homo sapiens, UniProt O14744)
T1 construct: Flag-PRMT5; made in house; host or cells: Spodoptera frugiperda (SF9) insect cells, baculovirus (pDEST8)
Test: PRMT5 Biochemical Assay (PRMT5/MEP50 enzyme assay on peptide substrate, 3H-SAM Flashplate)
Settings: PRMT5/MEP50 4 nM, 3H-SAM 75 nM, peptide 40 nM, 30 min preincubation at 25 degrees Celsius
Excerpt: S-adenosylmethionine (SAM), S-adenosylhomocysteine (SAH), bicine, KCl, Tween20, dimethylsulfoxide (DMSO), bovine skin gelatin (BSG), and Tris(2-carboxyethyl)phosphine hydrochloride solution (TCEP) were purchased from Sigma-Aldrich at the highest level of purity possible. ^3H-SAM was purchase from American Radiolabeled Chemicals with a specific activity of 80 Ci/mmol. 384-well streptavidin Flashplates were purchased from PerkinElmer.
Peptide representative of human histone H4 residues 1-15 was synthesized with a C-terminal linker-affinity tag motif and a C-terminal amide cap by 21st Century Biochemicals. The peptide was high high-performance liquid chromatography (HPLC) purified to greater than 95% purity and confirmed by liquid chromatography mass spectrometry (LC-MS). The sequence was Ac-[…][K-Biot]-amide (SEQ ID NO.:3).
Full-length human PRMT5 (NM_006109.3) transcript variant 1 clone was amplified from a fetal brain cDNA library, incorporating flanking 5′ sequence encoding a FLAG tag ([…]) (SEQ ID NO.:4) fused directly to Ala 2 of PRMT5. Full-length human MEP50 (NM_024102) clone was amplified from a human testis cDNA library incorporating a 5′ sequence encoding a 6-histidine tag (MHHHHHH) (SEQ ID NO.:5) fused directly to Arg 2 of MEP50. The amplified genes were sublconed into pENTR/D/TEV (Life Technologies) and subsequently transferred by Gateway™ attL×attR recombination to pDEST8 baculvirus expression vector (Life Technologies).
Recombinant baculovirus and Baculovirus-Infected Insect Cells (BIIC) were generated according to Bac-to-Bac kit instructions (Life Technologies) and Wasilko, 2006, respectively. Protein over-expression was accomplished by infecting exponentially growing Spodoptera frugiperda (SF9) cell culture at 1.2×10^6 cell/ml with a 5000 fold dilution of BIIC stock. Infections were carried out at 27° C. for 72 hours, harvested by centrifugation, and stored at −80° C. for purification.
Flag-PRMT5/6His-MeP50 was eluted with 300 mM Imidazole in the same buffer. The purity of recovered protein was 87%. Reference: Wasilko, D. J. and S. E. Lee: “TIPS: titerless infected-cells preservation and scale-up” Bioprocess J., 5 (2006), pp. 29-32.
General Procedure for PRMT5/MEP50 Enzyme Assays on Peptide Substrates.
The assays were all performed in a buffer consisting of 20 mM Bicine (pH=7.6), 1 mM TCEP, 0.005% BSG, and 0.002% Tween20, prepared on the day of use. Compounds in 100% DMSO (1 ul) were spotted into a polypropylene 384-well V-bottom plates (Greiner) using a Platemate Plus outfitted with a 384-channel head (Thermo Scientific). DMSO (1 ul) was added to Columns 11, 12, 23, 24, rows A-H for the maximum signal control and 1 ul of SAH, a known product and inhibitor of PRMT5/MEP50, was added to columns 11, 12, 23, 24, rows I-P for the minimum signal control. A cocktail (40 ul) containing the PRMT5/MEP50 enzyme and the peptide was added by Multidrop Combi (Thermo-Fisher). The compounds were allowed to incubate with PRMT5/MEP50 for 30 min at 25 degrees Celsius, then a cocktail (10 ul) containing ^3H-SAM was added to initiate the reaction (final volume=51 ul). The final concentrations of the components were as follows: PRMT5/MEP50 was 4 nM, ^3H-SAM was 75 nM, peptide was 40 nM, SAH in the minimum signal control wells was 100 uM, and the DMSO concentration was 1%. The assays were stopped by the addition of non-radioactive SAM (10 ul) to a final concentration of 600 uM, which dilutes the ^3H-SAM to a level where its incorporation into the peptide substrate is no longer detectable. 50 ul of the reaction in the 384-well polypropylene plate was then transferred to a 384-well Flashplate and the biotinylated peptides were allowed to bind to the streptavidin surface for at least 1 hour before being washed three times with 0.1% Tween20 in a Biotek ELx405 plate washer. […]

T1 sequence (O14744 with tags, fused parts or gaps): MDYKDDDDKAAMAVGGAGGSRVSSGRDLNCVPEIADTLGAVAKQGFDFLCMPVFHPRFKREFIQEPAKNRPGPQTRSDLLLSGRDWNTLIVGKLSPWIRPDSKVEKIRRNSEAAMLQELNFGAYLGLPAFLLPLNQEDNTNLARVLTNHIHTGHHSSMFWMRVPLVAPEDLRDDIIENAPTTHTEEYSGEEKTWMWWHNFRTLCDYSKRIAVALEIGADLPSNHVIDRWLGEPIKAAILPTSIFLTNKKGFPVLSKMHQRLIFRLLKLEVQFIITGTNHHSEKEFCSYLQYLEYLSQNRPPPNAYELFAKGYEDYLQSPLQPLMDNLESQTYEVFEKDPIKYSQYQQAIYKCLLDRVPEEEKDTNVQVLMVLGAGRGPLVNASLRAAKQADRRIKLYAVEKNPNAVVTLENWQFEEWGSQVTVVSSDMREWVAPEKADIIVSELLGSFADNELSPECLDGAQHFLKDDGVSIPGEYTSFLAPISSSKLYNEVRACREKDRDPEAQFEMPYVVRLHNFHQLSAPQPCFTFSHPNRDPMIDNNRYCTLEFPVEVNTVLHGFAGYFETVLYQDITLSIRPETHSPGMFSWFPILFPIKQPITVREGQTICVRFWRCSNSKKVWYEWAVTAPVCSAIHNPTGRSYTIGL
T1 sequence (Q9BQA1 with tags, fused parts or gaps partner limits assumed): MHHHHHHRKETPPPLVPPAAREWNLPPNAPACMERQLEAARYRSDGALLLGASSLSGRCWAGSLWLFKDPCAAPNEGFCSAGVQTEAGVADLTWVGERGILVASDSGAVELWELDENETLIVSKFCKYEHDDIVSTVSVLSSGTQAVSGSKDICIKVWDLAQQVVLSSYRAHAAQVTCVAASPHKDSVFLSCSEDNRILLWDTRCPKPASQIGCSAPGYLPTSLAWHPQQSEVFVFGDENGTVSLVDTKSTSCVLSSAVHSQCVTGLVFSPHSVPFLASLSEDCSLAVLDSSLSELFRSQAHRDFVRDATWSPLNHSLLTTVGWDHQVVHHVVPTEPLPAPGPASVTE

First: O=C(NC[C@H](O)CN1CCc2cccnc2C1)c1cc(NC2COC2)ncn1 [Compound 2-10]
Second: O=C(NC[C@H](O)CN1CCc2scnc2C1)c1cc(NC2COC2)ncn1 [Compound 1-21]
The IC50 of the first is lower: 1 to 10 µM for the first, greater than 10 µM for the second.

`CC(=O)N1CCC(Nc2cc(C(=O)NC[C@H](O)CN3CCc4sc(C)c(C)c4C3)ncn2)CC1` [Compound 1-39] and `CC(=O)N1CC(Nc2cc(C(=O)NC[C@H](O)CN3CCc4sc(C)c(C)c4C3)ncn2)C1` [Compound 1-31] cannot be ordered by IC50: less than 0.1 µM for the first, less than 0.1 µM for the second.

Compared with `CC(=O)N1CC(Nc2cc(C(=O)NC[C@H](O)CN3CCc4c(C)csc4C3)ncn2)C1` [Compound 1-26], `CC(=O)N1CCC(Nc2cc(C(=O)NC[C@H](O)CN3CCc4c(C)csc4C3)ncn2)CC1` [Compound 1-10, (S)-6-((1-acetylpiperidin-4-yl)amino)-N-(2-hydroxy-3-(3-methyl-4,5-dihydrothieno[2,3-c]pyridin-6(7H)-yl)propyl)pyrimidine-4-carboxamide] is lower in IC50: 0.101 to 1 µM for the first, less than 0.1 µM for the second. The second is the more potent here.

`OC(COc1cccc(CNC2CCCC2)c1)CN1CCc2ncccc2C1` (stereo not drawn) [Compound 2-1, 1-(3-((cyclopentylamino)methyl)phenoxy)-3-(7,8-dihydro-1,6-naphthyridin-6(5H)-yl)propan-2-ol] and `OC(COc1cccc(CNC2CCCC2)c1)CN1CCc2cnccc2C1` (stereo not drawn) [Compound 2-3] cannot be ordered by IC50: greater than 50 µM for the first, greater than 50 µM for the second.

First: CC(=O)N1CCC(Nc2cc(C(=O)NC[C@H](O)CN3CCc4nc(C)sc4C3)ccn2)CC1 [Compound 1-9]
Second: CC(=O)N1CCC(Nc2cc(C(=O)NC[C@H](O)CN3CCc4sc(C)c(C)c4C3)ccn2)CC1 [Compound 1-15, (S)-2-((1-acetylpiperidin-4-yl)amino)-N-(3-(2,3-dimethyl-6,7-dihydrothieno[3,2-c]pyridin-5(4H)-yl)-2-hydroxypropyl)isonicotinamide]
The IC50 of the first is higher: 1 to 10 µM for the first, less than 0.1 µM for the second.

Compared with `CC(=O)N1CCC(Nc2cc(C(=O)NC[C@H](O)CN3CCc4[nH]ncc4C3)ncn2)CC1` [Compound 3-20], `CC(=O)N1CCC(Nc2cc(C(=O)NC[C@H](O)CN3CCc4cnn(C)c4C3)ncn2)CC1` [Compound 3-60] is lower in IC50: 1 to 10 µM for the first, 0.101 to 1 µM for the second.

`CC(=O)N1CCC(Nc2cc(C(=O)NC[C@H](O)CN3CCc4cnn(C)c4C3)ccn2)CC1` [Compound 3-37, (S)-2-((1-acetylpiperidin-4-yl)amino)-N-(2-hydroxy-3-(1-methyl-4,5-dihydro-1H-pyrazolo[3,4-c]pyridin-6(7H)-yl)propyl)isonicotinamide] and `CC(=O)N1CCC(Nc2cc(C(=O)NC[C@H](O)CN3CCc4cn(C)nc4C3)ccn2)CC1` [Compound 3-55] fall in the same range of IC50: 0.101 to 1 µM for the first, 0.101 to 1 µM for the second.

`CC(=O)N1CC(Nc2cc(C(=O)NC[C@H](O)CN3CCc4scnc4C3)ncn2)C1` [Compound 1-25] and `CC(=O)N1CC(Nc2cc(C(=O)NC[C@H](O)CN3CCc4cn(C)nc4C3)ncn2)C1` [Compound 3-48] cannot be ordered by IC50: greater than 10 µM for the first, greater than 10 µM for the second.

`OC(COc1cccc(CNC2CCCC2)c1)CN1CCc2[nH]cnc2C1` (stereo not drawn) [Compound 3-7] and `Cn1cnc2c1CCN(C[C@@H](O)COc1cccc(CNC3CCCC3)c1)C2` [Compound 3-3] cannot be ordered by IC50: greater than 50 µM for the first, greater than 50 µM for the second.

`Cn1cc2c(n1)CCN(C[C@@H](O)COc1cccc(-c3ccc4ncn(C)c4c3)c1)C2` [Compound 3-1] and `Cn1cc2c(n1)CCN(C[C@H](O)COc1cccc(-c3ccc4ncn(C)c4c3)c1)C2` [Compound 3-18] cannot be ordered by IC50: greater than 50 µM for the first, greater than 50 µM for the second.

`Cn1cnc2c1CN(C[C@@H](O)COc1cccc(CNC3CCCC3)c1)CC2` [Compound 3-15] and `Cn1cnc2c1CN(C[C@H](O)COc1cccc(CNC3CCCC3)c1)CC2` [Compound 3-16] cannot be ordered by IC50: greater than 50 µM for the first, greater than 50 µM for the second.

`CC(=O)N1CCC(Nc2cc(C(=O)NC[C@H](O)CN3CCc4cn(C)nc4C3)ncn2)CC1` [Compound 3-59] and `Cn1cc2c(n1)CN(C[C@@H](O)CNC(=O)c1cc(NC3COC3)ncn1)CC2` [Compound 3-42] cannot be ordered by IC50: greater than 10 µM for the first, greater than 10 µM for the second.

`Cn1cc2c(n1)CCN(CC(O)COc1cccc(CNC3CCCC3)c1)C2` (stereo not drawn) [Compound 3-2] and `Cn1ncc2c1CCN(CC(O)COc1cccc(CNC3CCCC3)c1)C2` (stereo not drawn) [Compound 3-8] cannot be ordered by IC50: greater than 50 µM for the first, greater than 50 µM for the second.

Compared with `Cc1nc2c(s1)CCN(C[C@@H](O)CNC(=O)c1cc(NC3COC3)ncn1)C2` [Compound 1-22], `Cc1sc2c(c1C)CN(C[C@@H](O)CNC(=O)c1cc(NC3COC3)ncn1)CC2` [Compound 1-24] is lower in IC50: greater than 10 µM for the first, less than 0.1 µM for the second.

`Cn1ncc2c1CN(C[C@@H](O)CNC(=O)c1cc(NC3COC3)ncn1)CC2` [Compound 3-43] and `CC(=O)N1CC(Nc2cc(C(=O)NC[C@H](O)CN3CCc4cnn(C)c4C3)ncn2)C1` [Compound 3-49] fall in the same range of IC50: 1 to 10 µM for the first, 1 to 10 µM for the second.

`Cn1ncc2c1CCN(C[C@@H](O)COc1cccc(-c3ccc4ncn(C)c4c3)c1)C2` [Compound 3-4] and `Cn1ncc2c1CCN(C[C@H](O)COc1cccc(-c3ccc4ncn(C)c4c3)c1)C2` [Compound 3-5] cannot be ordered by IC50: greater than 50 µM for the first, greater than 50 µM for the second.

Compared with `OC(COc1ccccc1)CN1CCc2[nH]nc(-c3ccccc3)c2C1` (stereo not drawn) [Compound 3-32], `Cn1cnc2ccc(-c3cccc(OCC(O)CN4CCc5[nH]nc(-c6ccccc6)c5C4)c3)cc21` (stereo not drawn) [Compound 3-6, 1-(3-(1-methyl-1H-benzo[d]imidazol-6-yl)phenoxy)-3-(3-phenyl-6,7-dihydro-1H-pyrazolo[4,3-c]pyridin-5(4H)-yl)propan-2-ol] is lower in IC50: greater than 50 µM for the first, 10 to 50 µM for the second.

`OC(COc1cccc(CNC2CCCC2)c1)CN1CCc2ccncc2C1` (stereo not drawn) [Compound 2-2, 1-(3-((cyclopentylamino)methyl)phenoxy)-3-(3,4-dihydro-2,7-naphthyridin-2(1H)-yl)propan-2-ol] and `Cn1cnc2c1CCN(C[C@H](O)COc1cccc(CNC3CCCC3)c1)C2` [Compound 3-13] cannot be ordered by IC50: greater than 50 µM for the first, greater than 50 µM for the second.

Compound `Cn1cnc2ccc(-c3cccc(OCC(O)CN4CCc5ncccc5C4)c3)cc21` (stereo not drawn) [Compound 2-4, 1-(7,8-dihydro-1,6-naphthyridin-6(5H)-yl)-3-(3-(1-methyl-1H-benzo[d]imidazol-6-yl)phenoxy)propan-2-ol] has an IC50 of 10 to 50 µM.

System: Z-138 cell line
Test: Z-138 Proliferation Assay (Cell Titer Glo)
Format: cell-based
Settings: Homo sapiens, 120 h; Z-138 cells, 5 days incubation, ATP (Cell Titer Glo)
Excerpt: Z-138 Proliferation Assay
Z-138 suspension cells were purchased from ATCC (American Type Culture Collection, Manassas, Va.). RPMI/Glutamax medium, penicillin-streptomycin, heat inactivated fetal bovine serum were purchased from Life Technologies, Grand Island, N.Y., USA. V-bottom polypropylene 384-well plates were purchased from Greiner Bio-One, Monroe, N.C., USA. Cell culture 384-well white opaque plates were purchased from Perkin Elmer, Waltham, Mass., USA. Cell-Titer Glo® was purchased from Promega Corporation, Madison, Wis., USA. SpectraMax M5 plate reader was purchased from Molecular Devices LLC, Sunnyvale, Calif., USA.
Z-138 suspension cells were maintained in growth medium (RPMI 1640 supplemented with 10% v/v heat inactivated fetal bovine serum and cultured at 37° C. under 5% CO2. Under assay conditions, cells were incubated in assay medium (RPMI 1640 supplemented with 10% v/v heat inactivated fetal bovine serum and 100 units/mL penicillin-streptomycin) at 37° C. under 5% CO2.
For the assessment of the effect of compounds on the proliferation of the Z-138 cell line, exponentially growing cells were plated in 384-well white opaque plates at a density of 10,000 cells/ml in a final volume of 50 μl of assay medium. A compound source plate was prepared by performing triplicate nine-point 3-fold serial dilutions in DMSO, beginning at 10 mM (final top concentration of compound in the assay was 20 μM and the DMSO was 0.2%). A 100 nL aliquot from the compound stock plate was added to its respective well in the cell plate. […] After addition of compounds, assay plates were incubated for 5 days at 37° C., 5% CO2, relative humidity >90%.
Cell viability was measured by quantitation of ATP present in the cell cultures, adding 35 μl of Cell Titer Glo® reagent to the cell plates. Luminescence was read in the SpectraMax M5 microplate reader. The concentration of compound inhibiting cell viability by 50% was determined using a 4-parametric fit of the normalized dose response curves.

Compared with `O=C(NC[C@H](O)CN1CCc2cccnc2C1)c1cc(NC2COC2)ncn1` [Compound 2-10], `OC(COc1cccc(CNC2CCCC2)c1)CN1CCc2ncccc2C1` (stereo not drawn) [Compound 2-1, 1-(3-((cyclopentylamino)methyl)phenoxy)-3-(7,8-dihydro-1,6-naphthyridin-6(5H)-yl)propan-2-ol] is higher in EC50: 1 to 10 µM for the first, greater than 40 µM for the second. The first is the more potent here.
